This assay concerns the target Cruzipain (Trypanosoma cruzi, UniProt P25779). The assay can be described thus: Inhibition of Trypanosoma cruzi C-terminal truncated cruzain expressed in DH5alpha Escherichia coli by well-microplate spectrophotometry.

Some results are limits rather than exact numbers.

Chain of Cruzipain (P25779 whole entry, the tested form may be a part): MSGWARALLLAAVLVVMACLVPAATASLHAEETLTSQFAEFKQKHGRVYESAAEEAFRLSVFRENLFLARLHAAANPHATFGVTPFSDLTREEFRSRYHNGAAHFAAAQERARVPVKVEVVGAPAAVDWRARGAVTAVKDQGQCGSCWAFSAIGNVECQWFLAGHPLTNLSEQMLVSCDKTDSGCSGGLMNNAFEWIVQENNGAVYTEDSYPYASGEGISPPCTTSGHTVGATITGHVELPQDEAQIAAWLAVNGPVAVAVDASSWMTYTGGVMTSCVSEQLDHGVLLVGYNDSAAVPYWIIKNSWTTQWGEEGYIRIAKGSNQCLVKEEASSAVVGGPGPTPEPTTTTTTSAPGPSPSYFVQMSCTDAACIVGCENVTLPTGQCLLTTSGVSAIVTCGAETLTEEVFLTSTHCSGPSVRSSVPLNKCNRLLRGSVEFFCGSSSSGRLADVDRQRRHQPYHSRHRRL

Turning to `Cc1ccccc1CN=Nc1nccc(C(F)(F)F)n1` [2-(N'-2-Methyl-benzylidenehydrazino)-4-trifluoromethyl-pyrimidine], the IC50 – broadly, the concentration that inhibits the measured activity by half – was greater than 100 µM. With `Cc1cc(C(F)(F)F)nc(N=NCc2ccc(Cl)cc2)n1` [2-(N'-4-chloro-benzylidenehydrazino)-6-methyl-4-trifluoro-methyl-pyrimidine] the figure was 100 µM; with `O=[N+]([O-])c1ccc(CN=Nc2nccc(C(F)(F)F)n2)cc1` [2-(N'-4-Nitro-benzylidenehydrazino)-4-trifluoromethylpyrimidine], 100 µM; with `COc1ccccc1CN=Nc1nc(C)cc(C(F)(F)F)n1` [2-(N'-2-Methoxy-benzylidenehydrazino)-6-methyl-4-trifluoromethyl-pyri-midine], greater than 150 µM. With `COc1ccc(CN=Nc2nccc(C(F)(F)F)n2)cc1` [2-(N'-4-methoxy-benzylidenehydrazino)-4-trifluoromethyl-pyrimidine] the figure was greater than 100 µM; with `Cc1cc(C(F)(F)F)nc(N=NCc2ccccc2C)n1` [2-(N'-2-Methyl-benzylidenehydrazino)-6-methyl-4-trifluoromethyl-pyrimidine], greater than 100 µM. In the case of `Cc1ccc(CN=Nc2nccc(C(F)(F)F)n2)cc1` [2-(N'-4-Methyl-benzylidenehydrazino)-4-trifluoromethyl-pyrimidine], the IC50 is greater than 100 µM.

Take `FC(F)(F)c1ccnc(N=NCc2ccccc2)n1` [2-(N'-Benzylidenehydrazino)-4-trifluoromethylpyrimidine]: the IC50 is greater than 150 µM.

Source of the values: BindingDB's records for doi:10.1016/j.bmc.2008.10.052 (Universidade Federal De Santa Maria, 2008).
